# Assay results reported in patent US20250122174A1 (Shenzhen Yuanli Shenwan Innovative Medicine Co., Ltd., priority 2022, published 2025).
# Target: HPK1 (Homo sapiens (Human), UniProt Q92918)
# Test: HPK1 Inhibition Assay (ADP-Glo kinase assay)
# Assay type: biochemical
# Settings: ATP 10 μM
# Summary of the method: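 ADP-Glo luminescence read-out after 1 h room-temperature kinase reaction with 10 μM ATP and 0.1 μg/ml MBP. Recombinant human HPK1 at 7.5 ng/μl; buffer 40 mM Tris pH 7.5, 20 mM MgCl2. Compounds serially diluted 5-fold over 10 points from 10 mM DMSO stock.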
# Chain of HPK1 (Q92918 1-346 limits assumed): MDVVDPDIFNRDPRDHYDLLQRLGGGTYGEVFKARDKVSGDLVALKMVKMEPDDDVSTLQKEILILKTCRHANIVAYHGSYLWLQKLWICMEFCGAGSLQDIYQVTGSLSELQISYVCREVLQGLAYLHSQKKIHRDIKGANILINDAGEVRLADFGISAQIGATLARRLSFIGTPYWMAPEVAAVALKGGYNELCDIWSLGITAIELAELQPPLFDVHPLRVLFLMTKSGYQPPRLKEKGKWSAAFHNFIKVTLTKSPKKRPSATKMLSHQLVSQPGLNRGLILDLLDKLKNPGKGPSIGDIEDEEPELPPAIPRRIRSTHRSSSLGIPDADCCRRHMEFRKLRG
row,IC50 [nM],SMILES
1,< 100,"Cn1c(C(F)F)nc2c(N3CC[C@H](N)C3)c(NC(=O)c3ccc(=O)n(-c4c(F)cccc4F)n3)ccc21 [Example 161, (S)-N-(4-(3-aminopyrrolidin-1-yl)-2-(difluoromethyl)-1-methyl-1H-benzo[d]imidazol-5-yl)-1-(2,6-difluorophenyl)-6-oxo-1,6-dihydropyridazine-3-carboxamide]"
2,< 100,"COCCn1ncc2c(N3C[C@@H](C)[C@@H](N)C3)c(NC(=O)c3ccc(=O)n(-c4c(F)cccc4F)n3)ccc21 [Example 283, N-(4-((3R,4R)-3-amino-4-methylpyrrolidin-1-yl)-1-(2-methoxyethyl)-1H-indazol-5-yl)-1-(2,6-difluorophenyl)-6-oxo-1,6-dihydropyridazine-3-carboxamide]"
3,< 100,"C[C@@H]1CN(c2c(NC(=O)c3ccc(=O)n(-c4c(F)cccc4F)n3)ccc3nn(C4(C)CCC4)cc23)C[C@@H]1N [Example 317, 1-(2,6-difluorophenyl)-N-{4-[(3R,4R)-3-amino-4-methyltetrahydro-1H-pyrrol-1-yl]-2-(methylcyclobutyl)indazol-5-yl}-6-oxo-1,2-diazine-3-carboxamide]"
4,< 100,"Cn1c(C(C)(C)F)nc2c(N3CC[C@@H](N)C3)c(NC(=O)c3ccc(=O)n(-c4c(F)cccc4F)n3)cc(F)c21 [Example 157, (R)-N-(4-(3-aminopyrrolidin-1-yl)-7-fluoro-2-(2-fluoropropan-2-yl)-1-methyl-1H-benzo[d]imidazol-5-yl)-1-(2,6-difluorophenyl)-6-oxo-1,6-dihydropyridazine-3-carboxamide]"
5,< 100,"N[C@@H]1CCN(c2c(NC(=O)c3ccc(=O)n(-c4c(F)cccc4F)n3)ccc3c2cnn3C2CC2)C1 [Example 301, (R)-N-(4-(3-aminopyrrolidin-1-yl)-1-cyclopropyl-1H-indazol-5-yl)-1-(2,6-difluorophenyl)-6-oxo-1,6-dihydropyridazine-3-carboxamide]"
6,< 100,"Cn1c(C(C)(C)C)nc2c(N3CC[C@@](C)(N)C3)c(NC(=O)c3ccc(=O)n(-c4c(F)cccc4F)n3)ccc21 (single isomer, unassigned) [Example 101]"
7,< 100,"CCn1ncc2c(N3CC[C@@H](N)C3)c(NC(=O)c3ccc(=O)n(-c4c(F)cccc4F)n3)cc(F)c21 [Example 289, (R)-N-(4-(3-aminopyrrolidin-1-yl)-1-ethyl-7-fluoro-1H-indazol-5-yl)-1-(2,6-difluorophenyl)-6-oxo-1,6-dihydropyridazine-3-carboxamide]"
8,< 100,"Cc1nc2c(N3CCC[C@@H](N)C3)c(NC(=O)c3ccc(=O)n(-c4c(F)cccc4F)n3)ccc2n1C [Example 67, (R)—N-(4-(3-aminopiperidin-1-yl)-1,2-dimethyl-1H-benzo[d]imidazol-5-yl)-1-(2,6-difluorophenyl)-6-oxo-1,6-dihydropyridazine-3-carboxamide]"
9,100 to 1000,"Cc1nc2c(N3C[C@@H](N)C[C@H]3CO)c(NC(=O)c3ccc(=O)n(-c4c(F)cccc4F)n3)ccc2n1C [Example 68, N-(4-((2S,4S)-4-amino-2-(hydroxymethyl)amidazole-1-yl)-1,2-dimethyl-1H-benzo[d]amidazole-5-yl)-1-(2,6-difluorophenyl)-6-oxo-1,6-dihydropyridazine-3-carboxamide]"
10,< 100,"CC[C@@H]1CN(c2c(NC(=O)c3ccc(=O)n(-c4c(F)cccc4F)n3)cc(F)c3c2cnn3C(C)C)C[C@@H]1N [Example 216, N-(4-((3R,4R)-3-amino-4-ethylpyrrolidin-1-yl)-7-fluoro-1-isopropyl-1H-indazol-5-yl)-1-(2,6-difluorophenyl)-6-oxo-1,6-dihydropyridazine-3-carboxamide]"
11,< 100,"CC(C)c1nc2c(N3CC[C@@H](N)C3)c(NC(=O)c3nn(-c4c(F)cccc4F)c(=O)cc3Cl)ccc2n1C [Example 120, (R)-N-(4-(3-aminopyrrolidin-1-yl)-2-isopropyl-1-methyl-1H-benzo[d]imidazol-5-yl)-4-chloro-1-(2,6-difluorophenyl)-6-oxo-1,6-dihydropyridazine-3-carboxamide]"
12,< 100,"C[C@@H]1CN(c2c(NC(=O)c3ccc(=O)n(-c4c(F)cccc4F)n3)ccc3c2cnn3C)C[C@@H]1N [Example 166, N-[4-[(3R,4R)-3-amino-4-methyl-pyrrolidin-1-yl]-1-methyl-indazol-5-yl]-1-(2,6-difluorophenyl)-6-oxo-pyridazine-3-carboxamide]"
13,< 100,"C[C@@H]1CN(c2c(NC(=O)c3ccc(=O)n(-c4c(F)cccc4F)n3)ccc3nn(C4CCCC4)cc23)C[C@@H]1N [Example 333, N-(4-((3R,4R)-3-amino-4-methylpyrrolidin-1-yl)-2-cyclopentyl-2H-indazol-5-yl)-1-(2,6-difluorophenyl)-6-oxo-1,6-dihydropyridazine-3-carboxamide]"
14,< 100,"CC(C)c1nc2c(N3CC[C@H](N)C3)c(NC(=O)c3ccnn(-c4c(F)cccc4F)c3=O)ccc2n1C [Example 46, (S)—N-(4-(3-aminopyrrolidin-1-yl)-2-isopropyl-1-methyl-1H-benzo[d]imidazol-5-yl)-2-(2,6-difluorophenyl)-3-oxo-2,3-dihydropyridazine-4-carboxamide]"
15,< 100,"N#Cc1ccncc1-c1ccc(NC(=O)c2ccc(=O)n(-c3c(F)cccc3F)n2)c(N2C[C@@H](N)C[C@H]2CO)c1 [Example 347, N-(2-((2S,4S)-4-amino-2-(hydroxymethyl)pyrrolidin-1-yl)-4-(4-cyanopyridin-3-yl)phenyl)-1-(2,6-difluorophenyl)-6-oxo-1,6-dihydropyridazine-3-carboxamide]"
16,< 100,"COc1cccc(F)c1-n1cccc(C(=O)Nc2ccc3c(nc(C)n3C)c2N2CCC[C@H]2CN)c1=O [Example 54, (S)-N-(4-(2-(aminomethyl)pyrrolidin-1-yl)-1,2-dimethyl-1H-benzo[d]imidazol-5-yl)-1-(2-fluoro-6-methoxyphenyl)-2-oxo-1,2-dihydropyridine-3-carboxamide]"
17,< 100,"CC[C@@H](C)n1ncc2c(N3C[C@@H](C)[C@@H](N)C3)c(NC(=O)c3ccc(=O)n(-c4c(F)cccc4F)n3)ccc21 [Example 257, N-(4-((3R,4R)-3-amino-4-methylpyrrolidin-1-yl)-1-((R)-sec-butyl)-1H-indazol-5-yl)-1-(2,6-difluorophenyl)-6-oxo-1,6-dihydropyridazine-3-carboxamide]"
18,< 100,"CC(C)n1ncc2c(N3CC(N)C4(COC4)C3)c(NC(=O)c3ccc(=O)n(-c4c(F)cccc4F)n3)ccc21 (stereo not drawn) [Example 206, N-(4-(8-amino-2-oxa-6-azaspiro[3.4]octan-6-yl)-1-isopropyl-1H-indazol-5-yl)-1-(2,6-difluorophenyl)-6-oxo-1,6-dihydropyridazine-3-carboxamide]"
19,< 100,"CC1(C)CN(c2c(NC(=O)c3ccc(=O)n(-c4c(F)cccc4F)n3)ccc3nn([C@@H]4CCOC4)cc23)C[C@H]1N [Example 323, N-(4-((S)-4-amino-3,3-dimethylpyrrolidin-1-yl)-2-((R)-tetrahydrofuran-3-yl)-2H-indazol-5-yl)-1-(2,6-difluorophenyl)-6-oxo-1,6-dihydropyridazine-3-carboxamide]"
20,< 100,"N#Cc1ccncc1-c1ccc(NC(=O)c2ccc(=O)n(-c3c(F)cccc3F)n2)c(N2CCN[C@H](CO)C2)c1 [Example 350, (S)-N-(4-(4-cyanopyridin-3-yl)-2-(3-(hydroxymethyl)piperazin-1-yl)phenyl)-1-(2,6-difluorophenyl)-6-oxo-1,6-dihydropyridazine-3-carboxamide]"
21,< 100,"CC(C)n1ncc2c(N3C[C@@H](N)C[C@H]3CO)c(NC(=O)c3ccc(=O)n(-c4c(F)cccc4F)n3)ccc21 [Example 212, N-(4-((25,4S)-4-amino-2-(hydroxymethyl)pyrrolidin-1-yl)-1-isopropyl-1H-indazol-5-yl)-1-(2,6-difluorophenyl)-6-oxo-1,6-dihydropyridazine-3-carboxamide]"
22,< 100,"NC1CCN(c2c(NC(=O)c3ccc(=O)n(-c4c(F)cccc4F)n3)ccc3c2cnn3[C@H]2CCOC2)CC1 [Example 266, (S)-N-(4-(4-aminopiperidin-1-yl)-1-(tetrahydrofuran-3-yl)-1H-indazol-5-yl)-1-(2,6-difluorophenyl)-6-oxo-1,6-dihydropyridazine-3-carboxamide]"
23,< 100,"COCc1nc2c(N3CC[C@H](N)C3)c(NC(=O)c3ccnn(-c4c(F)cccc4F)c3=O)ccc2n1C [Example 44, (S)—N-(4-(3-aminopyrrolidin-1-yl)-2-(methoxymethyl)-1-methyl-1H-benzo[d]imidazol-5-yl)-2-(2,6-difluorophenyl)-3-oxo-2,3-dihydropyridazine-4-carboxamide]"
24,< 100,"C[C@H]1CN(c2c(NC(=O)c3ccc(=O)n(-c4c(F)cccc4F)n3)ccc3nn(C4(C)CCC4)cc23)C[C@@H]1N [Example 321, N-(4-((3R,4S)-3-amino-4-methylpyrrolidin-1-yl)-2-(1-methylcyclobutyl)-2H-indazol-5-yl)-1-(2,6-difluorophenyl)-6-oxo-1,6-dihydropyridazine-3-carboxamide]"
25,< 100,"[2H]C([2H])([2H])C([2H])(n1ncc2c(N3C[C@@H](C)[C@@H](N)C3)c(NC(=O)c3ccc(=O)n(-c4c(F)cccc4F)n3)ccc21)C([2H])([2H])[2H] [Example 275, N-(4-((3R,4R)-3-amino-4-methylpyrrolidin-1-yl)-1-(propan-2-yl-d7)-1H-indazol-5-yl)-1-(2,6-difluorophenyl)-6-oxo-1,6-dihydropyridazine-3-carboxamide]"
26,< 100,"Cc1nc2c(N3CCC4(CNC4)C3)c(NC(=O)c3ccc(=O)n(-c4c(F)cccc4F)n3)ccc2n1C [Example 85, 1-(2,6-difluorophenyl)-N-(1,2-dimethyl-4-(2,6-diazaspiro[3.4]octan-6-yl)-1H-benzo[d]imidazol-5-yl)-6-oxo-1,6-dihydropyridazine-3-carboxamide]"
27,< 100,"CC(C)n1ncc2c(N3CC[C@H](N)C3)c(NC(=O)c3ccc(=O)n(-c4c(F)cccc4F)n3)ccc21 [Example 207, (S)-N-(4-(3-aminopyrrolidin-1-yl)-1-isopropyl-1H-indazol-5-yl)-1-(2,6-difluorophenyl)-6-oxo-1,6-dihydropyridazine-3-carboxamide]"
